Holding throughout (experiment): biochemical
What all share (set-up): KINOMEscan competition binding, DNA-tagged kinase against immobilised ligand, qPCR read-out

For one assay, the target named is DYRK2 (Homo sapiens, UniProt Q92630). An outline of the steps: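 Competition binding format: the test compound competes with an immobilised ligand for DNA-tagged kinase, and the kinase remaining bound to the ligand is quantified by RT-qPCR. An 11-point 3-fold serial dilution was prepared in 100% DMSO at 100× final concentration, then diluted to 1× in the assay.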
Chain of DYRK2 (Q92630 whole entry): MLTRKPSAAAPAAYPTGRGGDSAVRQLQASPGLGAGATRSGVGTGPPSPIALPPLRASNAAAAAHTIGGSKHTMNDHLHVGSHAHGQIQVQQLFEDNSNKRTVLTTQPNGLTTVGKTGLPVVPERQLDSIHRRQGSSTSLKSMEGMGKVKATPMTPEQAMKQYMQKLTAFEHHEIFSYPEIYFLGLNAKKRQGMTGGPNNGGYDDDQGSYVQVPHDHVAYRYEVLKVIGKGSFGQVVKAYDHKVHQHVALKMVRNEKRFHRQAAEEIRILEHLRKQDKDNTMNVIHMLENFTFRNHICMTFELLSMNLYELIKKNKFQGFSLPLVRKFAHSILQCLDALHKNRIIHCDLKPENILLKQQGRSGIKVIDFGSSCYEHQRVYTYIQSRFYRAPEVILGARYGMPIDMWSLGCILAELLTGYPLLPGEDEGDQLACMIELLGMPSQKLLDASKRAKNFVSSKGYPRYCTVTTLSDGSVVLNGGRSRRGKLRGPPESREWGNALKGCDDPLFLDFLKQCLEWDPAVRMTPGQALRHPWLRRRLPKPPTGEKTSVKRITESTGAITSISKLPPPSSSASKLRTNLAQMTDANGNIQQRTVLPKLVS

A further assay deals with CDK2 (Homo sapiens, UniProt P24941). The conditions noted are these: read-out: Percent Control.
Another assay addresses AKT2 (Homo sapiens, UniProt P31751). Conditions: read-out: Percent Control.
Another assay concerns the target FYN (Homo sapiens, UniProt P06241). The conditions noted are these: read-out: Percent Control.
The target of another assay is MAP4K5 (Homo sapiens, UniProt Q9Y4K4). The conditions noted are these: read-out: Percent Control.
Another assay deals with INSRR (Homo sapiens, UniProt P14616). Conditions: read-out: Percent Control.
Chain of INSRR (P14616 whole entry): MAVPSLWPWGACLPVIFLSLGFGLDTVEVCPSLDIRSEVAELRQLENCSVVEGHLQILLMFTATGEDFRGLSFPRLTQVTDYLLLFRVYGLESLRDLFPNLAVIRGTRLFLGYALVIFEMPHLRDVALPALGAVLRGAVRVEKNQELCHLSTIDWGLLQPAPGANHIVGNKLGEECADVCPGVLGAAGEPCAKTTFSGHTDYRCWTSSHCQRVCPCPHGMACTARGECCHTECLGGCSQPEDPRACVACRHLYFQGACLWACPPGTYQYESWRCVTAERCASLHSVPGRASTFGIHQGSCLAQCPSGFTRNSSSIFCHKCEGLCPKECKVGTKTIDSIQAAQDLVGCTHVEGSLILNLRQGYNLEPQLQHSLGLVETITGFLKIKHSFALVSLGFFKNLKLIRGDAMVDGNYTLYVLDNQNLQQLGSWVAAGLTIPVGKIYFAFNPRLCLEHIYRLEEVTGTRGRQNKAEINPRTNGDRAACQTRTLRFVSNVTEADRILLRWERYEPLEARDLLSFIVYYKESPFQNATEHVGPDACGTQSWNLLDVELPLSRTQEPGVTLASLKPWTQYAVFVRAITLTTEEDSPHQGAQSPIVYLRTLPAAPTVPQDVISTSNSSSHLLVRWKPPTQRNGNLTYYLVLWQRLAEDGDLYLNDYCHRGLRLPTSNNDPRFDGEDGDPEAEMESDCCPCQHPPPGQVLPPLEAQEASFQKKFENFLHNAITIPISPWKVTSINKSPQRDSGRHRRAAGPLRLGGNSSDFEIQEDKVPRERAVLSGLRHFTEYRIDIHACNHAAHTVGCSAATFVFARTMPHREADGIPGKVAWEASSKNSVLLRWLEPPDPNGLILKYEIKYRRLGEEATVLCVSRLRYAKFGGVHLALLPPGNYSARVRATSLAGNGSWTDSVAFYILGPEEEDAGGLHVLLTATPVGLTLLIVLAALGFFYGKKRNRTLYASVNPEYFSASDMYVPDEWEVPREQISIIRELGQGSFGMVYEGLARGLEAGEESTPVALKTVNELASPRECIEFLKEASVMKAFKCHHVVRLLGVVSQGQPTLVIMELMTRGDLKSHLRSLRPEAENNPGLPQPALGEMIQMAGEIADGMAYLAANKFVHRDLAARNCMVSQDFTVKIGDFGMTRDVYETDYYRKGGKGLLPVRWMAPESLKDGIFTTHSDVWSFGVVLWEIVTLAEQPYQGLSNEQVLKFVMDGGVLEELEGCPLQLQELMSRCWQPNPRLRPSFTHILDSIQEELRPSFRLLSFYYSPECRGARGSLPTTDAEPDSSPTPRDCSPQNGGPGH
For a further assay, the target named is MAP4K3 (Homo sapiens, UniProt Q8IVH8). The conditions noted are these: read-out: Percent Control.
Chain of MAP4K3 (Q8IVH8 whole entry): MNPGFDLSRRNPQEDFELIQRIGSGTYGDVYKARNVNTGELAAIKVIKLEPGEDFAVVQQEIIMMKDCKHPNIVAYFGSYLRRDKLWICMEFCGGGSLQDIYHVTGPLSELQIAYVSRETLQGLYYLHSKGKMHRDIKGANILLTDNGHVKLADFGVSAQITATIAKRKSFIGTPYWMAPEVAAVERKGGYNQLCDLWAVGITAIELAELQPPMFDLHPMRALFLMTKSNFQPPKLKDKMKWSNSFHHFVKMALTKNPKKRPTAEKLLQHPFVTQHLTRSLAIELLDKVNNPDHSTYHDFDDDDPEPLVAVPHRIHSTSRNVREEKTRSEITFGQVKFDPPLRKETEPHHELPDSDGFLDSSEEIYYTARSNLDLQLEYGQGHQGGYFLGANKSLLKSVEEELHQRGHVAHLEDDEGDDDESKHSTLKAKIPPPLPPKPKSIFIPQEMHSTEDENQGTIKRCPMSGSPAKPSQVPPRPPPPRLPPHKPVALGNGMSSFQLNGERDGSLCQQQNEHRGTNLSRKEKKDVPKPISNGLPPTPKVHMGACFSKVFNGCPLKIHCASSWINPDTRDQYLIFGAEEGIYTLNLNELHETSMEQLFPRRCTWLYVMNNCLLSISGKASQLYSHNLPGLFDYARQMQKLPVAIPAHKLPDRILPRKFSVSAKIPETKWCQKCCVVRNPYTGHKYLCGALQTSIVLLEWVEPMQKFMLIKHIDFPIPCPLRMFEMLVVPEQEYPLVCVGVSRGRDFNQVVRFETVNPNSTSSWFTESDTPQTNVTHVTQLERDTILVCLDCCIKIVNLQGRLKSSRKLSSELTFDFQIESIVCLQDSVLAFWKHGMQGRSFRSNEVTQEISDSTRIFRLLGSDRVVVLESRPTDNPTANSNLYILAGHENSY
Another assay addresses MTOR (Homo sapiens, UniProt P42345). The conditions noted are these: read-out: Percent Control.
The target in the next assay is MAP3K14 (Homo sapiens, UniProt Q99558). The conditions noted are these: read-out: Percent Control.
The target of another assay is MAK (Homo sapiens, UniProt P20794). The conditions noted are these: read-out: Percent Control.
The target in a further assay is ABL2 (Homo sapiens, UniProt P42684). The conditions noted are these: read-out: Percent Control.
In another assay the target is ACVRL1 (Homo sapiens, UniProt P37023). Conditions: read-out: Percent Control.
For a further assay, the target named is PAK2 (Homo sapiens, UniProt Q13177). The conditions noted are these: read-out: Percent Control.
Another assay concerns the target BMX (Homo sapiens, UniProt P51813). The conditions noted are these: read-out: Percent Control.
A further assay deals with MARK1 (Homo sapiens, UniProt Q9P0L2). The conditions noted are these: read-out: Percent Control.
In another assay the target is VRK2 (Homo sapiens, UniProt Q86Y07). The conditions noted are these: read-out: Percent Control.
The target in the next assay is KIT (Homo sapiens, UniProt P10721). The conditions noted are these: read-out: Percent Control.
Chain of KIT (P10721 whole entry): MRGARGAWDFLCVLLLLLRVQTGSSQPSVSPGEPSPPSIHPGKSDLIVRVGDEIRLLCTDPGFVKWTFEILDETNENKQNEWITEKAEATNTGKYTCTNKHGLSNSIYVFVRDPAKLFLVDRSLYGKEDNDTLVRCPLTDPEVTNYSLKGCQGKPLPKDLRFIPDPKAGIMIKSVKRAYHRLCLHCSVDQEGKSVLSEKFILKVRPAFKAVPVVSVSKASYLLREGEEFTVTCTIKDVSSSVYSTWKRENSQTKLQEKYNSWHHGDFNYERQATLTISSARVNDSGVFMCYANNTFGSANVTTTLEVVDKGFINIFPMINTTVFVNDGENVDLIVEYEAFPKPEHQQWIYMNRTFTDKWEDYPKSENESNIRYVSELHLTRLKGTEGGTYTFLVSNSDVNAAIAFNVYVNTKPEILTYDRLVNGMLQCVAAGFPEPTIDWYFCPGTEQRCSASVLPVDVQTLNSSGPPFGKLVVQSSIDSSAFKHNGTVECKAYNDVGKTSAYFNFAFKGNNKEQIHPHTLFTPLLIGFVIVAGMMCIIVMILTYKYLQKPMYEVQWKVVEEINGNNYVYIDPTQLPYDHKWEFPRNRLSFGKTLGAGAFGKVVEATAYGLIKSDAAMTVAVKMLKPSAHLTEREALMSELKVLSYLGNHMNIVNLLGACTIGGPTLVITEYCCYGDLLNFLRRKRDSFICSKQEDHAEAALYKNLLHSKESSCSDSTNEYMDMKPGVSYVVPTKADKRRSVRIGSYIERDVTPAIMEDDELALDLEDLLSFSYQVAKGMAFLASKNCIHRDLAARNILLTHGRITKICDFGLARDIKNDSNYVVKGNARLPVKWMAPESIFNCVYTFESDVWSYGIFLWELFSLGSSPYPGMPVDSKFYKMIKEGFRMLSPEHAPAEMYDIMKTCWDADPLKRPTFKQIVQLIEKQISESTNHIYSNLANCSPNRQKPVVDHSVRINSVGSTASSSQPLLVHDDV
The next assay addresses CLK2 (Homo sapiens, UniProt P49760). The conditions noted are these: read-out: Percent Control.
The target of another assay is T1, ABL1-nonphosphorylated (Homo sapiens, UniProt P00519).
T1 construct: nonphosphorylated
Conditions: read-out: Percent Control.

The next assay addresses BMPR2 (Homo sapiens, UniProt Q13873). The conditions noted are these: read-out: Percent Control.

Chain of BMPR2 (Q13873 whole entry): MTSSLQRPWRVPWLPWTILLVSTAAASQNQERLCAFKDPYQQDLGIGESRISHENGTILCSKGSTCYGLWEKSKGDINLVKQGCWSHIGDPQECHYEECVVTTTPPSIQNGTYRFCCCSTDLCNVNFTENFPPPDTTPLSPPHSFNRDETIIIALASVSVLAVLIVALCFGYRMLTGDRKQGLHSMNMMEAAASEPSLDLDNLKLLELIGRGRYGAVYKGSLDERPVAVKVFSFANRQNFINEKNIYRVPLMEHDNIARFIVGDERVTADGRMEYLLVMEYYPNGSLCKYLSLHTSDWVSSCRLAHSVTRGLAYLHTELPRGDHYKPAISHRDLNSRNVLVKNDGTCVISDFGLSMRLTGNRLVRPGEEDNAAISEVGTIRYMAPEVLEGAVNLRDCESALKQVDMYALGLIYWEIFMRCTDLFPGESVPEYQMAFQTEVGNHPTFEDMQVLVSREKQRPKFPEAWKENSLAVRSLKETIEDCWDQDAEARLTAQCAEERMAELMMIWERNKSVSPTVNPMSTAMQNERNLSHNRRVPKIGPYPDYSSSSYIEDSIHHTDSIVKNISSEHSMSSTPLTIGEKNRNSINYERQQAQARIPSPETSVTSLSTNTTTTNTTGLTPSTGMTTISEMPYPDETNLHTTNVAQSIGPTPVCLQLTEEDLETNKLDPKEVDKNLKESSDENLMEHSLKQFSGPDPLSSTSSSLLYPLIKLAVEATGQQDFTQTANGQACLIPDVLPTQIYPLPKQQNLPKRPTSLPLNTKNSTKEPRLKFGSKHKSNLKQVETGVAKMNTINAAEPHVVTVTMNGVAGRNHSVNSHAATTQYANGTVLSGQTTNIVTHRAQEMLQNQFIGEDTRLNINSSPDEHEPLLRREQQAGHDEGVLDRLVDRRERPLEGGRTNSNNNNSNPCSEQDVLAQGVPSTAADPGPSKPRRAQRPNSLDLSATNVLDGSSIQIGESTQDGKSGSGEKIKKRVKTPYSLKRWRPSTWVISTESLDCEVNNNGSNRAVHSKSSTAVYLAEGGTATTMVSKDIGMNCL

The term Kd denotes the equilibrium constant for the complex coming apart. `Oc1ccc(C2=Cc3ccc(O)cc3OC2)cc1` [compound 1, idronoxil]: the Kd at DYRK2 stood at 2.7 µM. The remaining binding at 10 µM at DYRK2 (read-out: Percent Control) was found to be 11%; on CDK2, 92%; on AKT2, 90%; at FYN it was 89%; on MAP4K5, 70%; at INSRR it was 94%. Moreover, the remaining binding at 10 µM worked out at 92% on MAP4K3; 73% at MTOR; 60% at MAP3K14; 100% at MAK; 79% at ABL2; 92% on ACVRL1. Moreover, the remaining binding at 10 µM came out at 49% on PAK2; 75% at BMX; 91% at MARK1; 67% at VRK2; 19% at KIT; 69% at CLK2. The remaining binding at 10 µM on ABL1-nonphosphorylated was 32%; on BMPR2 it was 99%.

(Values after article PMC10507085, “Pharmacological inhibition of TBK1/IKKε blunts immunopathology in a murine model of SARS-CoV-2 infection” (Nature Communications, 2023).)
